Measurements taken from patent EP0396827A1, “2-Phenylthiobenzylamine dervivatives and acid addition salts thereof” (SPOFA Spojené Podniky Pro Zdravotnickou Vyrobu, priority 1989, dated 1990).
Where a name gives a salt, the structure may show the parent alone.

Experiments:
IP receptors = molecular target: T1, IP receptors (Rattus norvegicus, UniProt P31652); assay: inhibition of tritium-labelled imipramine binding in rat hypothalamus
T1 construct: standard biochemical tests on rat hypothalamus; from tissue; host or cells: rat hypothalamus
Protocol: (§1) The above compound was selected as a preferred structure from numerous related new substances on the basis of pharmacological evaluation.
(§2) The substances under study were tested in the form of salts administered p.o. The results are conventionally expressed as medium inhibition concentrations IC₅₀ (nM) and effective doses ED (eliciting a first statistically significant response) or medium effective doses ED₅₀ (mg per kg); the concentrations and effective doses are calculated as the corresponding amounts of the base.
(§3) Acute toxicity was tested in mice p.o. and medium lethal dose LD₅₀ is given. Thus, compound IA hydrogen maleate LD₅₀ 232 mg/kg. […] Reserpine hypothermia ED 10, ptosis 25, ulceration 50 mg/kg. Yohimbine, ED₅₀ 54.7 mg/kg.

DP receptors = molecular target: T2, DP receptors (Rattus norvegicus, UniProt Q63380); assay: inhibition of tritium-labelled desipramine binding in rat hypothalamus
T2 construct: standard biochemical tests on rat hypothalamus; from tissue; host or cells: rat hypothalamus
Protocol: as §1, §2, §3

5-HT re-uptake = assay: ³H-5-HT re-uptake inhibition in rat brain cortex; assay type: biochemical; settings: ³H-5-HT 10 nM, calculated as base, read-out: 5-HT re-uptake IC₅₀
Protocol: (§4) The reported selective action of compound IA was verified by direct comparison of ³H-5-HT (10 nM) and ³H-noradrenaline (NA, 10 nM) re-uptake in rat brain cortex; again the two sets of values were markedly differentiated in the sense of predominant 5-HT re-uptake inhibition.
as §2, §3

NA re-uptake = assay: ³H-noradrenaline re-uptake inhibition in rat brain cortex; assay type: biochemical; settings: ³H-noradrenaline 10 nM, calculated as base, read-out: NA re-uptake IC₅₀
Protocol: as §4, §2, §3

[1] = antireserpine activity: reserpine hypothermia; assay type: in vivo; settings: p.o.; ED eliciting a first statistically significant response; calculated as base
Protocol: (§5) Also, standard pharmacological tests of antireserpine activity (on experimental hypothermia, eyelid ptosis and gastric ulceration) and potentiation of yohimbine toxicity in mice are indicative of pronounced antidepressant properties of compound IA.
as §2, §3

[2] = antireserpine activity: reserpine eyelid ptosis; assay type: in vivo; settings: p.o.; ED eliciting a first statistically significant response; calculated as base
Protocol: as §5, §2, §3

[3] = antireserpine activity: reserpine gastric ulceration; assay type: in vivo; settings: p.o.; ED eliciting a first statistically significant response; calculated as base
Protocol: as §5, §2, §3

[4] = potentiation of yohimbine toxicity in mice; assay type: in vivo; settings: Mus musculus, po, calculated as base, read-out: Yohimbine, ED₅₀
Protocol: as §5, §2, §3

[5] = acute toxicity in mice p.o.; settings: mouse, in vivo, po, read-out: LD₅₀
Protocol: as §3

T2 sequence (Q63380 1-617): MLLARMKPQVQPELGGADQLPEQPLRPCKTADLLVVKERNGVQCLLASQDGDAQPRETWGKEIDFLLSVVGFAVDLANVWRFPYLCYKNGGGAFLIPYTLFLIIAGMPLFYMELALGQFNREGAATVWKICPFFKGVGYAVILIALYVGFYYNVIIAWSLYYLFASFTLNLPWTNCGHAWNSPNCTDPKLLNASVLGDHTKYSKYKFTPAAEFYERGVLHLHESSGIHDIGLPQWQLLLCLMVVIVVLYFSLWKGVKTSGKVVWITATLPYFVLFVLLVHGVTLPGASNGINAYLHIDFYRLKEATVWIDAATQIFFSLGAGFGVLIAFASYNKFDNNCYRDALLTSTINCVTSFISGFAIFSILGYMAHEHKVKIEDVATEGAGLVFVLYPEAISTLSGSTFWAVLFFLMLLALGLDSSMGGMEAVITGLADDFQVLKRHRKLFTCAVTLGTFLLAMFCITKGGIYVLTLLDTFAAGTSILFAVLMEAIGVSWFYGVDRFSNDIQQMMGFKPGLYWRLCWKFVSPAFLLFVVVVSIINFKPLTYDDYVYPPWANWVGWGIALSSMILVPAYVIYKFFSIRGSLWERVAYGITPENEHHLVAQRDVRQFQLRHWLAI
T1 sequence (P31652 whole entry): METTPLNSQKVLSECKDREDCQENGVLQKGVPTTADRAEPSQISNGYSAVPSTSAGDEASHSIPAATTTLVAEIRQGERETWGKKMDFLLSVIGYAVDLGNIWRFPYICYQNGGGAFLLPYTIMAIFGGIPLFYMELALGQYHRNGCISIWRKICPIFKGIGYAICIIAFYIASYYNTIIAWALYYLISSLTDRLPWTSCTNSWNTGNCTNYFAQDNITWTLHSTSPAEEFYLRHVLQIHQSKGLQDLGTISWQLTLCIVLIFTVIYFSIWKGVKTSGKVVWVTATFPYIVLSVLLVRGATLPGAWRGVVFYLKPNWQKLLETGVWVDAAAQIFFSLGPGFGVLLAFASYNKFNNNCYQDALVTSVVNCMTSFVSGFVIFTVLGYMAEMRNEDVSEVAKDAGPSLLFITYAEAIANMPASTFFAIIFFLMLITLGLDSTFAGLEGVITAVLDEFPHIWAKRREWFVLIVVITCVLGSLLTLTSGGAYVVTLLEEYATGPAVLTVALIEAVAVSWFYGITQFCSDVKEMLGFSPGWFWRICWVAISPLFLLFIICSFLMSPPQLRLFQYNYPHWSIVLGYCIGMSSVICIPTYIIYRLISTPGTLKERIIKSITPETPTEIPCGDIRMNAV

For `CN(C)Cc1ccccc1Sc1cccc(O)c1` [compound IA hydrogen maleate, N,N-Dimethyl-2-(3-hydroxyphenylthio)benzylamine], the IC50 (IP receptors) was 0.00424 µM, the IC50 (DP receptors) was 12.9 µM and the IC50 (5-HT re-uptake) was 0.00058 µM. The IC50 (NA re-uptake) was 506 µM, the “Reserpine hypothermia ED” value [1] was 10 mg/kg and the “Reserpine ptosis ED” value [2] was 25 mg/kg. The “Reserpine ulceration ED” value [3] was 50 mg/kg, the ED50 [4] was 54.7 mg/kg and the LD50 [5] was 232 mg/kg.
